Assay results: PMC12373846, “Hemoglobin as a pseudoperoxidase and drug target for oxidative stress-related diseases” (Signal Transduction and Targeted Therapy, 2025)
Several values for one entry are separate records, joined by “and”; a condition that tells them apart may be missing. Equal values may be shown once. Read-outs that look alike come from different tables or passages of the source.

Assays:
Lck kinase (h) = biological target: T1, Lck kinase (h) (Homo sapiens, UniProt P06239); experiment: SafetyScreen87 panel; assay type: biochemical; settings: 1.00E-06, read-out: % Inhibition of Control Specific Binding (1st, 2nd, Mean)
T1 construct: purchased Eurofins Discovery (Cerep, France)
Protocol: (§1) The possibility of KDS12025 on kinase off-target, the KINOMEscan panel of scanEDGE assay was conducted in DiscoverX (CA, USA) using a site-directed competition binding with the test compounds. The assay results are given in Supplementary Table 4 and experimental information is available on the DiscoverX web page (www.discoverx.com). Moreover, the Delta SafetyScreen87 panel assay was conducted in Eurofins Discovery (Cerep, France). The assay results are given in Supplementary Table 5 and experimental information is available on the DiscoverX web page (https://www.eurofinsdiscoveryservices.com).

[1] = biological target: T2, MAO-B (h) recombinant enzyme (Homo sapiens, UniProt P27338); experiment: SafetyScreen87 panel; assay type: biochemical; settings: 1.00E-06, read-out: % Inhibition of Control Specific Binding (1st, 2nd, Mean)
T2 construct: purchased Eurofins Discovery (Cerep, France)
Protocol: as §1

PDE3A (h) = biological target: T3, PDE3A (h) (Homo sapiens, UniProt Q14432); experiment: SafetyScreen87 panel; assay type: biochemical
T3 construct: purchased Eurofins Discovery (Cerep, France)
T3 sequence (Q14432 whole entry): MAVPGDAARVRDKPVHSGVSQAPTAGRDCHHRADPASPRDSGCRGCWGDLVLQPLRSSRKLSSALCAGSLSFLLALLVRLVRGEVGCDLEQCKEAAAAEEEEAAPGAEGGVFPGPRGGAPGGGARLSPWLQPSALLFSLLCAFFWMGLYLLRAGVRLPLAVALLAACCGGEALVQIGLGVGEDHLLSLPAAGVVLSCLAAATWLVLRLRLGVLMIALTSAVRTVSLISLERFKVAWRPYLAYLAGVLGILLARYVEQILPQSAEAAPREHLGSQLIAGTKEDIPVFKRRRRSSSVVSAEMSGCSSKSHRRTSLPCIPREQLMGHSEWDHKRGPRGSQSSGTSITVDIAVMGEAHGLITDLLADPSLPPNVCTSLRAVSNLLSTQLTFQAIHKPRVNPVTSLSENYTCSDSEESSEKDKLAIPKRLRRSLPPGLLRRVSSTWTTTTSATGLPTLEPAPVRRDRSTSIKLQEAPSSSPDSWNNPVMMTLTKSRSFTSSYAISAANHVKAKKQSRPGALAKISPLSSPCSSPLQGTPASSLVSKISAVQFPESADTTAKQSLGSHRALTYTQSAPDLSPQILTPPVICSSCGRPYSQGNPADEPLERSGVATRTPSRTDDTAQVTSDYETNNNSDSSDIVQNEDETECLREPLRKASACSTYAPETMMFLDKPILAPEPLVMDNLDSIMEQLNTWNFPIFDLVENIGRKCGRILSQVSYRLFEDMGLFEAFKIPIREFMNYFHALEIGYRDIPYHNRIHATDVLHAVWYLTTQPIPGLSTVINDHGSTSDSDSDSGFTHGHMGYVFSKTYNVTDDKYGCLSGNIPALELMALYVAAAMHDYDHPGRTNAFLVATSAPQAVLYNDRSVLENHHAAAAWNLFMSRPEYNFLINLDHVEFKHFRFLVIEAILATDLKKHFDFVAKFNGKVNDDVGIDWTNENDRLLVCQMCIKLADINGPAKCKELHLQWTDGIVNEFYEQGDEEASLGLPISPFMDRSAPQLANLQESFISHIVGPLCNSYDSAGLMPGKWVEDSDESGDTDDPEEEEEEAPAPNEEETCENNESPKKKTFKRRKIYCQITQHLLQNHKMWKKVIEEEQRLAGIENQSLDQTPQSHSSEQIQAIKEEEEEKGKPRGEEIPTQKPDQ
Protocol: as §1

acetylcholinesterase (h) = biological target: T4, acetylcholinesterase (h) (Homo sapiens, UniProt P22303); experiment: SafetyScreen87 panel; assay type: biochemical; settings: 1.00E-06, read-out: % Inhibition of Control Specific Binding (1st, 2nd, Mean)
T4 construct: purchased Eurofins Discovery (Cerep, France)
T4 sequence (P22303 32-614): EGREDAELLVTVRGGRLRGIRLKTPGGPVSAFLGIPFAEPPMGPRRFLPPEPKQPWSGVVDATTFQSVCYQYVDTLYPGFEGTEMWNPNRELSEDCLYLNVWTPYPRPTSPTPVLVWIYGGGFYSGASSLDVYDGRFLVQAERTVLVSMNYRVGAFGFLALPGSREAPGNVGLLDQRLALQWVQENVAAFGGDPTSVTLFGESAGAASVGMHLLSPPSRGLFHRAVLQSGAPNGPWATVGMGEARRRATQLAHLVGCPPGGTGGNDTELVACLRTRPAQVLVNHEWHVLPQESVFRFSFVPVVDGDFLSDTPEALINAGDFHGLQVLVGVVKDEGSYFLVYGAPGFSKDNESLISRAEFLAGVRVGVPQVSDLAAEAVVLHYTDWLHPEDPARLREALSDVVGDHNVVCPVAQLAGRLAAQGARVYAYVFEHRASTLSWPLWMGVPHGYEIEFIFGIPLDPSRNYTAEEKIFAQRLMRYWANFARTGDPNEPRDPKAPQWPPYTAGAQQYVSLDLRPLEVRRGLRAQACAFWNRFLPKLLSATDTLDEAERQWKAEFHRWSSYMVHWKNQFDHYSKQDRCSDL
Protocol: as §1

IRK (h) (InsR) = biological target: T5, IRK (h) (InsR) (Homo sapiens, UniProt P06213); experiment: SafetyScreen87 panel; assay type: biochemical
T5 construct: purchased Eurofins Discovery (Cerep, France)
Protocol: as §1

cathepsin G (h) = biological target: T6, cathepsin G (h) (Homo sapiens, UniProt P08311); experiment: SafetyScreen87 panel; assay type: biochemical; settings: 1.00E-06, read-out: % Inhibition of Control Specific Binding (1st, 2nd, Mean)
T6 construct: purchased Eurofins Discovery (Cerep, France)
T6 sequence (P08311 21-255): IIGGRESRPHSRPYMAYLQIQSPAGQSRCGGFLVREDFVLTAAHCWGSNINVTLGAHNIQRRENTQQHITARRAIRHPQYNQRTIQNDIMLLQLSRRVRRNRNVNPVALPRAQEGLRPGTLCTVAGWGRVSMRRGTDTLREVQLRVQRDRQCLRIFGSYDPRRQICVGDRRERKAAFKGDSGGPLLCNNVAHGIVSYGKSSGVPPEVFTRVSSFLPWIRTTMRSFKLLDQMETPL
Protocol: as §1

ACE (h) = biological target: T7, ACE (h) (Homo sapiens, UniProt P12821); experiment: SafetyScreen87 panel; assay type: biochemical; settings: 1.00E-06, read-out: % Inhibition of Control Specific Binding (1st, 2nd, Mean)
T7 construct: purchased Eurofins Discovery (Cerep, France)
T7 sequence (P12821 30-1306): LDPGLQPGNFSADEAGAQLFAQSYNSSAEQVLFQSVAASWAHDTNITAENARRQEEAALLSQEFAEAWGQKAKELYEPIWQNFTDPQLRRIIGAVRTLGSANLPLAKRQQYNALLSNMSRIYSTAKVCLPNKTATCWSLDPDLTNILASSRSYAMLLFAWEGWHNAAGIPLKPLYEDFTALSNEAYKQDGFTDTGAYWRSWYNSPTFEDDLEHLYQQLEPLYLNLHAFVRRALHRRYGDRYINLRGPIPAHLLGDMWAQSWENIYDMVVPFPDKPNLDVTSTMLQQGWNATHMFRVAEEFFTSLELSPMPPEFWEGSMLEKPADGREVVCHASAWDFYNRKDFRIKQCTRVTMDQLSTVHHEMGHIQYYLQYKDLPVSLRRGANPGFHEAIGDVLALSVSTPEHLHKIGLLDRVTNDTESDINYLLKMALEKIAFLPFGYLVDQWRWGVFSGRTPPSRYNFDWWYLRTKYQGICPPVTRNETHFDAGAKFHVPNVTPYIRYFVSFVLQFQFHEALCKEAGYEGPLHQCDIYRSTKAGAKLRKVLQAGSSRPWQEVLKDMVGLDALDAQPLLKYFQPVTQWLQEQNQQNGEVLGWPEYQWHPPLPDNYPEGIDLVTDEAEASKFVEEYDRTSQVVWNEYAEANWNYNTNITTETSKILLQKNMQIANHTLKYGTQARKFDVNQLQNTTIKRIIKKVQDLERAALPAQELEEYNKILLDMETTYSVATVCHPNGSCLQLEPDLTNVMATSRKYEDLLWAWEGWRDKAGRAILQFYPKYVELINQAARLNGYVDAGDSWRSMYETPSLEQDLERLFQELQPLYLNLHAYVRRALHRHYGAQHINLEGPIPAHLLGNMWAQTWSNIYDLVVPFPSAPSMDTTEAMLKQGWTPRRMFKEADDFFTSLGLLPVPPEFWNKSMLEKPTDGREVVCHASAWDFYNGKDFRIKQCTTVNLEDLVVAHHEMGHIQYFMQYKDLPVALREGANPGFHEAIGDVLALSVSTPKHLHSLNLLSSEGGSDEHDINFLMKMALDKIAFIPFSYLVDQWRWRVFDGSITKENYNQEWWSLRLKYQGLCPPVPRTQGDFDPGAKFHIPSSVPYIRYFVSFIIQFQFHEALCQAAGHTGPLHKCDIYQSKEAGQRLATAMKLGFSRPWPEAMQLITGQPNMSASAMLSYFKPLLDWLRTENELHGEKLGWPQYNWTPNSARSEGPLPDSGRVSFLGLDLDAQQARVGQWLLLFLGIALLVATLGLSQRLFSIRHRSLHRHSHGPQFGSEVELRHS
Protocol: as §1

COX2(h) = biological target: T8, COX2(h) (Homo sapiens, UniProt P35354); experiment: SafetyScreen87 panel; assay type: biochemical; settings: 1.00E-06, read-out: % Inhibition of Control Specific Binding (1st, 2nd, Mean)
T8 construct: purchased Eurofins Discovery (Cerep, France)
T8 sequence (P35354 18-604): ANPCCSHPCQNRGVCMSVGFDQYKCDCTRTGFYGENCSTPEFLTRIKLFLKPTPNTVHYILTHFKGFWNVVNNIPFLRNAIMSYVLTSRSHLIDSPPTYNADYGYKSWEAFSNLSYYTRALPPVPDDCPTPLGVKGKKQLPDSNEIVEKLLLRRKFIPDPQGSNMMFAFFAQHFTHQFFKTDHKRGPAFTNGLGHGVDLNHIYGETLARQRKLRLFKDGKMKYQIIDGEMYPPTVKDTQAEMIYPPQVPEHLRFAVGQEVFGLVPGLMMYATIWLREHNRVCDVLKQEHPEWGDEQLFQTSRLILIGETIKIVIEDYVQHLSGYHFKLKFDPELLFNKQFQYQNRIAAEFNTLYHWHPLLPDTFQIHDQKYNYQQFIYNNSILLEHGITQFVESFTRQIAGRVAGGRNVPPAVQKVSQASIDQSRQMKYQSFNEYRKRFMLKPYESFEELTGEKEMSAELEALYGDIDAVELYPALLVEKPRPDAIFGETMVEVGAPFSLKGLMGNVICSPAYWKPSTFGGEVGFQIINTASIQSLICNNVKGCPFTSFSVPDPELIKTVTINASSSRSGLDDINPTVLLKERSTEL
Protocol: as §1

ATPase (Na+/K+) = experiment: SafetyScreen87 panel; assay type: biochemical; settings: 1.00E-06; read-out: % Inhibition of Control Specific Binding (1st, 2nd, Mean)
Protocol: as §1

PKCalpha (h) = biological target: T9, PKCalpha (h) (Homo sapiens, UniProt P17252); experiment: SafetyScreen87 panel; assay type: biochemical; settings: 1.00E-06, read-out: % Inhibition of Control Specific Binding (1st, 2nd, Mean)
T9 construct: purchased Eurofins Discovery (Cerep, France)
Protocol: as §1

COX1(h) = biological target: T10, COX1(h) (Homo sapiens, UniProt P23219); experiment: SafetyScreen87 panel; assay type: biochemical; settings: 1.00E-06, read-out: % Inhibition of Control Specific Binding (1st, 2nd, Mean)
T10 construct: Eurofins Discovery (Cerep, France) SafetyScreen87 panel
T10 sequence (P23219 24-599): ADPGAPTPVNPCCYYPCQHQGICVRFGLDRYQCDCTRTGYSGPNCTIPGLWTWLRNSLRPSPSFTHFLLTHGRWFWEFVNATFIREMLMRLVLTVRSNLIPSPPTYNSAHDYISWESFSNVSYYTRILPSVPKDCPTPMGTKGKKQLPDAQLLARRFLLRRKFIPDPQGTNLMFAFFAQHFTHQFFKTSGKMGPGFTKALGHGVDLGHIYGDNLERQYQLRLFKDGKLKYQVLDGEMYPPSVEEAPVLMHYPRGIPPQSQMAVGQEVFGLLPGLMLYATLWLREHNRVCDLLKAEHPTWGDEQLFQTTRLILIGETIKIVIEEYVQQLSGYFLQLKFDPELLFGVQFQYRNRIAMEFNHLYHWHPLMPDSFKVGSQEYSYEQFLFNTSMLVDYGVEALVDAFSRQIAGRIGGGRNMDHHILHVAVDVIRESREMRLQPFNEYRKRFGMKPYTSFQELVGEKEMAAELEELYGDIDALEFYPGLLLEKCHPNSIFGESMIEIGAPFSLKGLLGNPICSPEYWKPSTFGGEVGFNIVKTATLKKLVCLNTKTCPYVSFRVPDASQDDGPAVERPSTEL
Protocol: as §1

fGiD mice = experiment: Immunohistochemistry of hippocampal CA1, fGiD mice; assay type: in vivo, mouse; settings: fGiD+KDS, 3 mg/kg/day i.p. 16 days, Fig. 4e
aged C57BL/6J mice = experiment: Immunohistochemistry, aging mice; assay type: in vivo, mouse; settings: 30 month, 1 mg/kg/day
Protocol: Aged 1-year-old C57BL/6J animals were purchased from Janvier Labs (France) and quarantined in the IBS Animal Facility for 2 weeks before the experiment. The animals were weighed, and their water consumption (in grams) was monitored for 3 days before the appropriate drug concentration was calculated for each dose group. The animals were randomly assigned to the drug/control and dose groups. […] The drug concentration (in water) was modified on the basis of changes in animal weight and corresponding water consumption every 3 months. Basal body temperature and body weight were monitored every 2 weeks. The care and handling of the animals were performed in accordance with the guidelines of the Institutional Animal Care and Use Committee of IBS (Daejeon, South Korea).
The mice were deeply anesthetized with 2% isoflurane and positioned on the operating table. After the abdomen was opened and the heart was exposed, the […] were perfused with saline, followed by 4% paraformaldehyde (PFA) in 0.1 M PBS. The mice were decapitated, and the brains were excised from the skull. Excised brains were postfixed in 4% PFA overnight at 4 °C and dehydrated in 30% sucrose for 48 h. Coronal hippocampal sections were cut at 30 µm thickness with a cryostat and stored in storage solution. For the ALS experiments, lumbar spinal cords (L2–L5) were also carefully dissected and immediately immersed in 4% PFA for postfixation. The sections were fully washed in 0.1 M PBS and incubated for 1 h in blocking solution (0.3% Triton X-100, 2% donkey and goat serum in 0.1 M PBS). Next, a mixture of primary antibodies in the blocking solution was used for immunostaining on a shaker overnight at 4 °C. The sections were washed in PBS three times. After washing, the sections were incubated with the corresponding fluorescent secondary antibodies for 1 h at RT. DAPI staining was performed by adding a DAPI solution (1:2000) during the second washing step. After the washing step was complete, the sections were mounted on cover slides with mounting medium. A series of fluorescence images were obtained with an LSM900 (Zeiss, Germany) confocal microscope or Lattice SIM Elyra 7 (Zeiss, Germany). The 15–22 μm Z stack images in 1–2 μm steps were processed for image analysis, which was performed via the ImageJ (NIH, US) and ZEN digital imaging for light microscopy blue system (Zeiss, Germany) programs. The primary antibodies used were as follows: chicken anti-GFAP (1:500, Millipore, ab5541), rabbit anti-amyloid beta (1:500, Abcam, ab2539), mouse anti-NeuN (1:200, Millipore, ab377), rabbit anti-Hbβ (1:200, Abcam, ab214049), mouse anti-Hbβ (1:200, Santacruz, sc-21757), mouse anti-MAOB (1:200, Santacruz, sc-515354), mouse anti-8-OhdG (1:500, Santacruz, sc-393871), rabbit anti-TH (1:500, Pelfreez, p40101), and mouse anti-TH (1:200, Sigma, T2928). The following secondary antibodies from Jackson were diluted (1:500) in blocking solution: donkey-anti-chicken 405, donkey-anti-chicken 647, donkey-anti-rabbit 488, donkey-anti-rabbit 594, donkey-anti-rabbit 647, donkey-anti-guinea pig 488, donkey-anti-guinea pig 647, donkey-anti-mouse 594, and donkey-anti-mouse 647. Serial confocal sections immunolabeled with GFAP were compiled into a maximal projection to assess the GFAP signal within the hippocampus (Z-stacked images, 15–22 μm Z stack images in 1–2 μm steps of brain sections). Sholl analysis, performed via the ImageJ plugin, automatically generated concentric circles with 10-μm spacing from the nucleus (soma) to the farthest astrocytic process. This analysis quantified the intersections of GFAP-labeled processes within each circle, calculating the ramification index and ending radius, enabling the evaluation of astrocytic hypertrophy and morphological changes, as previously described.[78] In the focal GiD mouse model, NeuN-positive CA1 pyramidal neurons were quantified within a 50 × 50 μm^2 region via ImageJ to determine the number of CA1 pyramidal neurons.

[2] = 1.00E-06; read-out: % Inhibition of Control Specific Binding (1st, 2nd, Mean)
[3] = read-out: % Inhibition of Control Specific Binding (1st, 2nd, Mean); 1.00E-06

CNc1ccc(NCCc2ccccc2OC)cc1.Cl [KDS12025, N^1-(2-methoxyphenethyl)-N^4-methylbenzene-1,4-diamine hydrochloride salt]
activity (Lck kinase (h); mean): 94.1% | activity (Lck kinase (h)): 95.9% and 92.2% | activity ([1]; mean): 119% | activity [1]: 116% and 121% | activity (PDE3A (h); [2]): 89.8% | activity (PDE3A (h); [3]): 87.1% and 92.4% | activity (acetylcholinesterase (h); mean): 91.7% | activity (acetylcholinesterase (h)): 92.6% and 90.8% | activity (IRK (h) (InsR); [2]): 109% | activity (IRK (h) (InsR); [3]): 100% | activity (cathepsin G (h); mean): 100% | activity (cathepsin G (h)): 97.2% and 103% | activity (ACE (h); mean): 100% | activity (ACE (h)): 101% and 99.4% | activity (COX2(h); mean): 43.8% | activity (COX2(h)): 42.2% and 45.3% | activity (ATPase (Na+/K+)): 97.8% | activity (PKCalpha (h); mean): 104% | activity (PKCalpha (h)): 105% and 103% | activity (COX1(h); mean): 59.3% | activity (COX1(h)): 62.5% and 56.1% | mean GFAP intensity in the GFAP-positive area (fGiD mice): fGcon (49.2±2.7, n=9), fGiD (82.5±3.6, n=9), fGiD+KDS (59.0±2.5, n=9) One-way ANOVA with Tukey's multiple comparisons test, F(2,24) = 33.23, p < 0.001 fGcon vs. fGiD, p < 0.01; fGcon vs. fGiD+KDS, p = 0.07; fGiD vs. fGiD+KDS12025 (0.1mpk), p = 0.01 | Sholl analysis, sum of intersections (stats entry 7h) (aged C57BL/6J mice): 18 month (84.3±5.19, n=8), 30 month (44.4±5.44, n=9), 30 month+KDS (63.6±5.78, n=14) One-way ANOVA with Tukey's multiple comparisons test, F(2,28) = 9.65, p < 0.001 18 month vs. 30 month, p < 0.001; 18 month vs. 30 month+KDS, p = 0.05; 30 month vs. 30 month+KDS, p = 0.06 | NeuN-positive neurons in CA1 (NeuN intensity × neuron number) (aged C57BL/6J mice; Fig. 7f): 18 month (1694642±125526, n=6), 30 month (1149296±45876, n=4), 30 month+KDS (1820376±163596, n=6) One-way ANOVA with Tukey's multiple comparisons test, F(2,13) = 5.78, p = 0.02 18 month vs. 30 month, p = 0.05; 18 month vs. 30 month+KDS, p = 0.77; 30 month vs. 30 month+KDS, p = 0.02 | GFAP-positive area (aged C57BL/6J mice; Fig. 7g): 18 month (272.5±20.8, n=44), 30 month (167.6±12, n=60), 30 month+KDS (212.0±12.4, n=76) One-way ANOVA with Tukey's multiple comparisons test, F(2,177) = 11.24, p < 0.001 18 month vs. 30 month, p < 0.001; 18 month vs. 30 month+KDS, p = 0.01; 30 month vs. 30 month+KDS, p = 0.06 | astrocytic Hbβ expression in the hippocampus (aged C57BL/6J mice; Fig. 7l): 18 month (56.4±1.04, n=48), 30 month (49.5±1.7, n=40), 30 month+KDS (62.8±1.32, n=32) One-way ANOVA with Tukey's multiple comparisons test, F(2,117) = 21.5, p < 0.001 18 month vs. 30 month, p < 0.001; 18 month vs. 30 month+KDS, p = 0.004; 30 month vs. 30 month+KDS, p < 0.001 | MAOB intensity in GFAP-positive areas (aged C57BL/6J mice; Fig. S19b): 18 month (40.7±0.7, n=95), 30 month (71.5±1.04, n=66), 30 month+KDS (51.1±0.8, n=83) One-way ANOVA with Tukey's multiple comparisons test, F(2,241) = 354.7, p < 0.001 18 month vs. 30 month, p < 0.001; 18 month vs. 30 month+KDS, p < 0.001; 30 month vs. 30 month+KDS, p < 0.001 | GABA intensity in GFAP-positive areas (aged C57BL/6J mice; Fig. S19c): 18 month (50.7±0.7, n=95), 30 month (67.03±1.7, n=66), 30 month+KDS (69.2±1.3, n=83) One-way ANOVA with Tukey's multiple comparisons test, F(2,198) = 84.9, p < 0.001 18 month vs. 30 month, p < 0.001; 18 month vs. 30 month+KDS, p < 0.001; 30 month vs. 30 month+KDS, p = 0.47 | TH-positive neurons in the SNpc (aged C57BL/6J mice; Fig. S19d): Unaired t-test, two tailed 30 month (23.75±5.12, n=4), 30 month+KDS (40.2±2.67, n=5), p = 0.02 t = 3.03, df = 7
